From patent US6737383B1, “Herbicidal oxadiazolidines” (priority 1999, dated 2004)

What was measured:
barnyardgrass = assay: Test C postemergence barnyardgrass; format: in vivo, Echinochloa crus-galli; settings: 0 to 100 scale, 0 no effect, 100 complete control
How it was run: (§1)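 Foliar postemergence treatment of greenhouse plants grown in 60:40 sandy loam:potting mix; compounds delivered in non-phytotoxic solvent with surfactant. Evaluation is visual, 0–100, after ~14–21 d.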

purple nutsedge = assay: Test C postemergence purple nutsedge; format: in vivo, Cyperus rotundus; settings: 0 to 100 scale, 0 no effect, 100 complete control
Description: (§2) Compounds evaluated in this test were formulated in a non-phytotoxic solvent mixture which included a surfactant and applied to plants that were grown for various periods of time before treatment (postemergence application). A mixture of sandy loam soil and greenhouse potting mix in a 60:40 ratio was used for the postemergence test.
(§3) Plantings of these crops and weed species were adjusted to produce plants of appropriate size for the postemergence test. All plant species were grown using normal greenhouse practices. Crop and weed species include arrowleaf sida (Sida rhombifolia), barnyardgrass (Echinochloa crus-galli), cocklebur (Xanthium strumarium), common ragweed (Ambrosia elatior), corn (Zea mays), cotton (Gossypium hirsutum), eastern black nightshade (Solanum ptycanthum), fall panicum (Panicum dichotomiflorum), field bindweed (Convolvulus arvensis), giant foxtail (Setaria faberii), hairy beggarticks (Bidens pilosa), ivyleaf morningglory (Ipomoea hederacea), johnsongrass (Sorghum halepense), ladysthumb smartweed (Polygonum persicaria), lambsquarters (Chenopodium album), large crabgrass (Digitaria sanguinalis), purple nutsedge (Cyperus rotundus), redroot pigweed (Amaranthus retroflexus), soybean (Glycine max), surinam grass (Brachiaria decumbens), velvetleaf (Abutilon theophrasti) and wild poinsettia (Euphorbia heterophylla).
(§4) Treated plants and untreated controls were maintained in a greenhouse for approximately 14, to 21 days, after which all treated plants were compared to untreated controls and visually evaluated. Plant response ratings, summarized in Table C, were based upon a 0 to 100 scale where 0 was no effect and 100 was complete control. A dash response (−) means no test result.

hairy beggarticks = assay: Test C postemergence hairy beggarticks; format: in vivo, Bidens pilosa; settings: 0 to 100 scale, 0 no effect, 100 complete control
Description: as §2, §3, §4

arrowleaf sida = assay: Test C postemergence arrowleaf sida; format: in vivo, Sida rhombifolia; settings: 0 to 100 scale, 0 no effect, 100 complete control
How it was run: as §1

eastern black nightshade = assay: Test C postemergence eastern black nightshade; format: in vivo, Solanum ptycanthum; settings: 0 to 100 scale, 0 no effect, 100 complete control
Description: as §2, §3, §4

velvetleaf = assay: Test C postemergence velvetleaf; format: in vivo, Abutilon theophrasti; settings: 0 to 100 scale, 0 no effect, 100 complete control
Description: as §2, §3, §4

green foxtail = assay: Test E green foxtail; format: in vivo, Setaria viridis; settings: Postemergence
How it was run: (§5)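 Postemergence: spray at 1–4 leaf stage, soil 60:40 sandy loam:potting mix; solvent + surfactant formulation; greenhouse 21–28 d; visual injury vs untreated controls.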

Russian thistle = assay: Test E Russian thistle; format: in vivo, Salsola kali; settings: Preemergence
downy brome [1] = assay: Test E downy brome; format: in vivo, Bromus tectorum; settings: Postemergence; for Plant response rating, Downy brome: 0 to 100 scale
Description: Compounds evaluated in this test were formulated in a non-phytotoxic solvent mixture which included a surfactant and applied to plants that were in the 1- to 4-leaf stage (postemergence application). A mixture of sandy loam soil and greenhouse potting mix in a 60:40 ratio was used for the postemergence test.
Plantings of these crops and weed species were adjusted to produce plants of appropriate size for the postemergence test. All plant species were grown using normal greenhouse practices. Crop and weed species include annual bluegrass (Poa annua), blackgrass (Alopecurus myosuroides), black nightshade (Solanum nigra), chickweed (Stellaria media), common poppy (Papaver rhoeas), deadnettle (Lamium amplexicaule), downy brome (Bromus tectorum), field violet (Viola arvensis), galium (Galium aparine), green foxtail (Setaria viridis), Italian ryegrass (Lolium multiflorum), jointed goatgrass (Aegilops cylindrica), kochia (Kochia scoparia), lambsquarters (Chenopodium album), littleseed canarygrass (Phalaris minor), rape (Brassica napus), redroot pigweed (Amaranthus retroflexus), Russian thistle (Salsola kali), scentless chamomile (Matricaria inodora), spring barley (Hordeum vulgare), sugar beet (Beta vulgaris), sunflower (Helianthus annuus), ivyleaf speedwell (Veronica hederaefolia), spring wheat (Triticum aestivum), winter wheat (Triticum aestivum), wild buckwheat (Polygonum convolvulus), wild mustard (Sinapis arvensis), wild oat (Avena fatua), windgrass (Apera spica-venti) and winter barley (Hordeum vulgare).
Treated plants and untreated controls were maintained in a greenhouse for approximately 21 to 28 days, after which all treated plants were compared to untreated controls and visually evaluated. […] A dash response (-) means no test result.

jointed goatgrass = assay: Test E jointed goatgrass; format: in vivo, Aegilops cylindrica; settings: Preemergence
spring barley = assay: Test E spring barley; format: in vivo, Hordeum vulgare; settings: Postemergence
How it was run: as §5

downy brome [2] = assay: Test E downy brome; format: in vivo, Bromus tectorum; settings: Preemergence
[3] = Rate 250 g/ha, 0 to 100 scale (0 no effect, 100 complete control)
[4] = Rate 500 g/ha, 0 to 100 scale, 0 no effect, 100 complete control
[5] = Rate 125 g/ha, 0 to 100 scale (0 no effect, 100 complete control)
[6] = Rate 500 g/ha, 0 to 100 scale where 0 is no effect and 100 is complete control
[7] = Rate 500 g/ha, 0 no effect, 100 complete control
[8] = Rate 250 g/ha, 0 to 100 scale where 0 is no effect and 100 is complete control

Compound: CCn1c(=O)on(C(=O)N(c2ccccc2)C(C)C)c1=O [Compound 117]
- Plant response rating, Barnyardgrass (barnyardgrass; Rate 140 g/ha): 70
- Plant response rating, Barnyardgrass (barnyardgrass; Rate 280 g/ha): 80
- Plant response rating, Barnyardgrass (barnyardgrass; Rate 560 g/ha): 90
- Plant response rating, Barnyardgrass (barnyardgrass; Rate 1120 g/ha): 90
- Plant response rating, Purple nutsedge (purple nutsedge; Rate 140 g/ha): 0
- Plant response rating, Purple nutsedge (purple nutsedge; Rate 280 g/ha): 0
- Plant response rating, Purple nutsedge (purple nutsedge; Rate 560 g/ha): 10
- Plant response rating, Purple nutsedge (purple nutsedge; Rate 1120 g/ha): 80
- Plant response rating H. beggarticks (hairy beggarticks; Rate 1120 g/ha): 0
- Plant response rating Arrowleaf sida (arrowleaf sida; Rate 140 g/ha): 0
- Plant response rating Arrowleaf sida (arrowleaf sida; Rate 280 g/ha): 0
- Plant response rating Arrowleaf sida (arrowleaf sida; Rate 560 g/ha): 0
- Plant response rating Arrowleaf sida (arrowleaf sida; Rate 1120 g/ha): 50
- Plant response rating E. blacknightsh (eastern black nightshade; Rate 140 g/ha): 0
- Plant response rating E. blacknightsh (eastern black nightshade; Rate 280 g/ha): 0
- Plant response rating E. blacknightsh (eastern black nightshade; Rate 560 g/ha): 70
- Plant response rating E. blacknightsh (eastern black nightshade; Rate 1120 g/ha): 80
- Plant response rating, Velvetleaf (velvetleaf; Rate 140 g/ha): 0
- Plant response rating, Velvetleaf (velvetleaf; Rate 560 g/ha): 20
- Plant response rating, Velvetleaf (velvetleaf; Rate 1120 g/ha): 60

Compound: CC(C)N(C(=O)n1oc(=O)n(C(C)C)c1=O)c1ccc(Cl)cc1 [Compound 114]
- Plant response rating, Green foxtail (green foxtail; Rate 125 g/ha, 0 to 100 scale): 20
- Plant response rating, Green foxtail (green foxtail; [3]): 50
- Plant response rating, Green foxtail (green foxtail; [4]): 90
- Plant response rating, Russian thistle (Russian thistle; [5]): 0
- Plant response rating, Russian thistle (Russian thistle; Rate 250 g/ha, 0 to 100 scale): 0
- Plant response rating, Russian thistle (Russian thistle; [6]): 0
- Plant response rating, Downy brome (downy brome [1]; Rate 125 g/ha): 0
- Plant response rating, Downy brortie (downy brome [1]; [3]): 0
- Plant response rating, Downy brome (downy brome [1]; [7]): 30
- Plant response rating, Jointed goatgra (jointed goatgrass; [5]): 20
- Plant response rating, Jointed goatgra (jointed goatgrass; Rate 250 g/ha, 0 to 100 scale): 65
- Plant response rating, Jointed goatgra (jointed goatgrass; [6]): 50
- Plant response rating, Spring Barley (spring barley; Rate 125 g/ha, 0 to 100 scale): 20
- Plant response rating, Spring Barley (spring barley; [3]): 30
- Plant response rating, Spring Barley (spring barley; [4]): 35
- Plant response rating, Downy brome (downy brome [2]; [5]): 10
- Plant response rating, Downy brome (downy brome [2]; Rate 250 g/ha, 0 to 100 scale): 60
- Plant response rating, Downy brome (downy brome [2]; [6]): 50

Compound: CC(C)N(C(=O)n1oc(=O)n(C(C)C)c1=O)c1ccc(F)cc1 [Compound 131]
- Plant response rating, Green foxtail (green foxtail; Rate 62 g/ha, 0 to 100 scale): 55
- Plant response rating, Green foxtail (green foxtail; Rate 125 g/ha, 0 to 100 scale): 70
- Plant response rating, Green foxtail (green foxtail; [4]): 75
- Green foxtail plant response rating (green foxtail; [8]): 50
- Plant response rating, Russian thistle (Russian thistle; [5]): 10
- Russian thistle plant response rating (0 to 100 scale) (Russian thistle; Rate 250 g/ha): 0
- Plant response rating, Russian thistle (Russian thistle; [6]): 0
- Plant response rating, Barnyardgrass (barnyardgrass; Rate 140 g/ha): 70
- Plant response rating, Barnyardgrass (barnyardgrass; Rate 280 g/ha): 70
- Plant response rating, Barnyardgrass (barnyardgrass; Rate 560 g/ha): 95
- Plant response rating, Barnyardgrass (barnyardgrass; Rate 1120 g/ha): 95
- Plant response rating, Downy brome (downy brome [1]; Rate 62 g/ha): 55
- Plant response rating, Downy brome (downy brome [1]; Rate 125 g/ha): 0
- Plant response rating, Downy brome (downy brome [1]; [7]): 70
- Downy brome plant response rating (downy brome [1]; [8]): 50
- Plant response rating, Jointed goatgra (jointed goatgrass; [5]): 50
- Jointed goatgra plant response rating (0 to 100 scale) (jointed goatgrass; Rate 250 g/ha): 70
- Plant response rating, Jointed goatgra (jointed goatgrass; [6]): 95
- Plant response rating, Purple nutsedge (purple nutsedge; Rate 140 g/ha): 0
- Plant response rating, Purple nutsedge (purple nutsedge; Rate 280 g/ha): 0
- Plant response rating, Purple nutsedge (purple nutsedge; Rate 560 g/ha): 0
- Plant response rating, Purple nutsedge (purple nutsedge; Rate 1120 g/ha): 80
- Plant response rating H. beggarticks (hairy beggarticks; Rate 140 g/ha): 0
- Plant response rating H. beggarticks (hairy beggarticks; Rate 560 g/ha): 40
- Plant response rating H. beggarticks (hairy beggarticks; Rate 1120 g/ha): 70
- Plant response rating Arrowleaf sida (arrowleaf sida; Rate 280 g/ha): 10
- Plant response rating Arrowleaf sida (arrowleaf sida; Rate 560 g/ha): 30
- Plant response rating Arrowleaf sida (arrowleaf sida; Rate 1120 g/ha): 60
- Plant response rating, Spring Barley (spring barley; Rate 62 g/ha, 0 to 100 scale): 5
- Plant response rating, Spring Barley (spring barley; Rate 125 g/ha, 0 to 100 scale): 0
- Plant response rating, Spring Barley (spring barley; [4]): 20
- Spring Barley plant response rating (spring barley; [8]): 0
- Plant response rating, Downy brome (downy brome [2]; [5]): 85
- Downy brome plant response rating (0 to 100 scale) (downy brome [2]; Rate 250 g/ha): 80
- Plant response rating, Downy brome (downy brome [2]; [6]): 100
- Plant response rating E. blacknightsh (eastern black nightshade; Rate 140 g/ha): 0
- Plant response rating E. blacknightsh (eastern black nightshade; Rate 280 g/ha): 10
- Plant response rating E. blacknightsh (eastern black nightshade; Rate 560 g/ha): 50
- Plant response rating E. blacknightsh (eastern black nightshade; Rate 1120 g/ha): 80
- Plant response rating, Velvetleaf (velvetleaf; Rate 140 g/ha): 0
- Plant response rating, Velvetleaf (velvetleaf; Rate 280 g/ha): 0
- Plant response rating, Velvetleaf (velvetleaf; Rate 560 g/ha): 10
- Plant response rating, Velvetleaf (velvetleaf; Rate 1120 g/ha): 70
